Test results: article PMC3306279, “Evaluation of an Antimicrobial L-Amino Acid Oxidase and Peptide Derivatives from Bothropoides mattogrosensis Pitviper Venom” (PLoS ONE, 2012)
Ends that are not written are not given here.

Legend:
Type in all cases: cell-based
[1] = test system: Bacillus subtilis (ATCC 6633); assay: MIC determination, broth dilution; conditions: fragments, first figure of the cell (µM/µg.mL^−1); Mueller-Hinton broth, 37°C, 12 h; 100% growth inhibition
Protocol: (§1) The minimal inhibitory concentration (MIC) was determined using a standardized dilution method according to NCSLA guidelines. Overnight colonies of Bacillus subtilis (ATCC 6633), Enterococcus faecalis (ATCC 12953), Staphylococcus aureus (ATCC29213), Streptococcus pyogenes (ATCC19615), Escherichia coli (ATCC8739), Klebsiella pneumonia (ATCC13885), Proteus mirabilis (ATCC25933), Pseudomonas aeruginosa ATCC 15442 and Salmonella typhimurium (ATCC14028) were suspended to a turbidity of 0.5 units and further diluted in Mueller-Hinton broth (MH) (Himedia - India). […] Ten microliters of each concentration was added to each corresponding well of a 96-well plate (TPP, Switzerland) and 1×10^5 bacteria in the volume of 90 µL. The plate was incubated at 37°C for 12 h.

[2] = test system: Enterococcus faecalis (ATCC 12953); assay: MIC determination, broth dilution; conditions: fragments, first figure of the cell (µM/µg.mL^−1); Mueller-Hinton broth, 37°C, 12 h; 100% growth inhibition
Protocol: as §1

[3] = test system: Escherichia coli (ATCC8739); assay: MIC determination, broth dilution; conditions: fragments, first figure of the cell (µM/µg.mL^−1); Mueller-Hinton broth, 37°C, 12 h; 100% growth inhibition
Protocol: as §1

[4] = test system: Klebsiella pneumoniae (ATCC13885); assay: MIC determination, broth dilution; conditions: fragments, first figure of the cell (µM/µg.mL^−1); Mueller-Hinton broth, 37°C, 12 h; 100% growth inhibition
Protocol: as §1

[5] = test system: Proteus mirabilis (ATCC25933); assay: MIC determination, broth dilution; conditions: fragments, first figure of the cell (µM/µg.mL^−1); Mueller-Hinton broth, 37°C, 12 h; 100% growth inhibition
Protocol: as §1

[6] = test system: Pseudomonas aeruginosa (ATCC15442); assay: MIC determination, broth dilution; conditions: fragments, first figure of the cell (µM/µg.mL^−1); Mueller-Hinton broth, 37°C, 12 h; 100% growth inhibition
Protocol: as §1

[7] = test system: Salmonella typhimurium (ATCC14028); assay: MIC determination, broth dilution; conditions: fragments, first figure of the cell (µM/µg.mL^−1); Mueller-Hinton broth, 37°C, 12 h; 100% growth inhibition
Protocol: as §1

[8] = test system: Staphylococcus aureus (ATCC29213); assay: MIC determination, broth dilution; conditions: fragments, first figure of the cell (µM/µg.mL^−1); Mueller-Hinton broth, 37°C, 12 h; 100% growth inhibition
Protocol: as §1

[9] = test system: Streptococcus pyogenes (ATCC19615); assay: MIC determination, broth dilution; conditions: fragments, first figure of the cell (µM/µg.mL^−1); Mueller-Hinton broth, 37°C, 12 h; 100% growth inhibition
Protocol: as §1

[10] = test system: RAW 264.7 murine macrophage-like cells; assay: Cell cytotoxicity, MTT assay; conditions: for cell viability: RAW264.7, even at higher concentrations; for Cytotoxicity, MTT assay: RAW264.7 cells, sample 512 µg.mL^−1, 24 h, mean ± S.D., three independent experiments
Protocol: Sterile filtered MTT (3-(4,5-dimethylthiazolyl)-2,5-diphenyl-tetrazoliumbromide; Sigma-Aldrich, USA) solution (5 mg.mL^−1 in PBS) was dark stored at −20°C. RAW 264.7 murine macrophage-like cells, 1×10^5 cells/well was seeded in 96 well plates (TPP, Switzerland), in supplemented DMEM medium (4 mM glutamine, 10% FCS and 100 units.ml^−1 penicillin/streptomycin) containing multiple treatments. Treatments consisted of fractions F-44, F-51, F-68, BmLAO (0–512 µg.mL^−1) and fragments BmLAO-f1, BmLAO-f2 and BmLAO-f3 at different concentrations (0–500 µM). After overnight incubation, 60% of medium was then removed, and 10 µl of the MTT solution was added to each well; the plates were then incubated for 4 h in the presence of 5% CO2 at 37°C. The blue formazan product generated was dissolved by the addition of 100 µl of 100% DMSO (Mallinckrodt Chemical) per well. The plates were then gently swirled for 5 min at room temperature in order to dissolve the precipitate. The absorbance was monitored at 575 nm in a Biotek Powerwave HT microplate spectrophotometer (Bio-Tek Instruments, USA).

human erythrocytes = assay: Hemolysis assay; conditions: for haemolysis: even at higher concentrations; for Cytotoxicity, Hemolysis assay: sample 512 µg.mL^−1, 24 h by the footnote (method: 1 h, 37°C), relative to 0.1% triton X-100, OD 540 nm, mean ± S.D., three independent experiments
Protocol: Human heparine-blood was obtained from the Universidade Católica de Brasilia cell collection. Collection was obtained with written informed consent. Heparine blood cells were centrifuged at 800 g for 10 min. The erythrocytes were washed three times and re-suspended in 0.1% PBS, pH 7.4. […] The positive control was 0.1% triton X-100 (Sigma-Aldrich, USA). The samples were then centrifuged at 800 g for 10 min. The optical density at 540 nm of the supernatant was measured. The relative optical density compared to that of the suspension treated with 0.1% triton X-100 defined hemolysis percent.

IYYPPNHNFP-NH2 [BmLAO-f3]
MIC [1]: 220 µM | MIC [2]: 110 µM | MIC [3]: 220 µM | MIC [4]: 110 µM | MIC [5]: 110 µM | MIC [6]: 220 µM | MIC [7]: 220 µM | MIC [8]: 220 µM | MIC [9]: 110 µM | cell viability [10]: over 78% | Cytotoxicity, MTT assay [10]: 11.2±2.1 % of control | haemolysis (human erythrocytes): less than 25% | Cytotoxicity, Hemolysis assay (human erythrocytes): 9.87±3.1 % of control

KKFWEDDG-NH2 [BmLAO-f2]
MIC [1]: 250 µM | MIC [2]: 125 µM | MIC [3]: 250 µM | MIC [4]: 125 µM | MIC [5]: 125 µM | MIC [6]: 250 µM | MIC [8]: 250 µM | MIC [9]: 125 µM | cell viability [10]: over 78% | Cytotoxicity, MTT assay [10]: 13.6±4.5 % of control | haemolysis (human erythrocytes): less than 25% | Cytotoxicity, Hemolysis assay (human erythrocytes): 11.32±2.9 % of control

IKFEPPLPPKKAH-NH2 [BmLAO-f1]
MIC [1]: 43 µM | MIC [2]: 43 µM | MIC [3]: 22 µM | MIC [4]: 22 µM | MIC [5]: 43 µM | MIC [6]: 22 µM | MIC [7]: 43 µM | MIC [8]: 43 µM | MIC [9]: 43 µM | Cytotoxicity, MTT assay [10]: 21.0±3.5 % of control | haemolysis (human erythrocytes): less than 25% | Cytotoxicity, Hemolysis assay (human erythrocytes): 13.75±3.6 % of control
